# According to patent US20060134188A1, “Transdermal pharmaceutical preparation with a progesterone A-specific ligand (PRASL) as active ingredient” (priority 2004, published 2006):
# Columns and labels:
# [1] = background statement; cited from earlier work
# [2] = Solubility of PRASL in the adhesive matrix; type: physicochemical; details: acrylate adhesive matrix DuroTak 387-2287
# Description: The selection of suitable adhesive matrices occurs based on the solubility of PRASL in the adhesive matrices. Suitable adhesive matrices for the present invention are those in which the solubility of PRASL is between 0.1 to 5%. Adhesive matrices, in which the solubility of PRASL is between 0.1 to 2%, have proven to be especially suitable.
# If the solubility of the adhesive matrix used for PRASL is larger than 2 to 5%, as e.g. in the case of the acrylate adhesive matrix, DuroTak 387-2287, the entire effective ingredient amount dissolves after film-formation and the advantages of the amorphous effective ingredient dispersion according to the present invention cannot be employed.
smiles,measurement,setting,value
"O=C1OCc2cc(NC(=O)[C@](O)(CC3(c4cc(C(F)(F)F)ccc4F)CC3)C(F)(F)F)ccc21 [PRASL, (R)-3-{1-[2-fluoro-5-(trifluoromethyl)-phenyl]-cyclopropyl}-2-hydroxy-N-(phthalid-5-yl)-2-(trifluoromethyl)-propanamide]",Daily dosage that activates pharmacological effects,[1],30 micrograms
same,Solubility of the adhesive matrix for PRASL,[2],2 to 5%
